Test results as given in PubChem BioAssay (NCI).
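Values below derive from 48-hour exposures of cells grown in 96-well plates, with endpoints linearly interpolated between the two concentrations bracketing the appropriate inhibition level. Abbreviation: GI50, concentration required for 50% inhibition of growth. At the TGI there is no net growth.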

How the values were obtained:
Assay in all cases: NCI tumour cell line growth inhibition, 48 h
786-0 renal = system: 786-0 renal
A498 renal = system: A498 renal
A549 NSCLC = system: A549 NSCLC
ACHN renal = system: ACHN renal
BT-549 breast = system: BT-549 breast
CAKI-1 renal = system: CAKI-1 renal
CCRF-CEM leukemia = system: CCRF-CEM leukemia
COLO 205 colon = system: COLO 205 colon
DU-145 prostate = system: DU-145 prostate
EKVX NSCLC = system: EKVX NSCLC
HCC-2998 colon = system: HCC-2998 colon
HCT-116 colon = system: HCT-116 colon
HCT-15 colon = system: HCT-15 colon
HL-60(TB) leukemia = system: HL-60(TB) leukemia
HOP-62 NSCLC = system: HOP-62 NSCLC
HOP-92 NSCLC = system: HOP-92 NSCLC
HS 578T breast = system: HS 578T breast
HT29 colon = system: HT29 colon
IGROV1 ovarian = system: IGROV1 ovarian
K-562 leukemia = system: K-562 leukemia
KM12 colon = system: KM12 colon
LOX IMVI melanoma = system: LOX IMVI melanoma
M14 melanoma = system: M14 melanoma
MALME-3M melanoma = system: MALME-3M melanoma
MCF7 breast = system: MCF7 breast
MDA-MB-231 breast = system: MDA-MB-231 breast
MDA-MB-435 = system: MDA-MB-435
MOLT-4 leukemia = system: MOLT-4 leukemia
NCI-H226 lung = system: NCI-H226 lung
NCI-H460 lung = system: NCI-H460 lung
NCI-H522 lung = system: NCI-H522 lung
NCI/ADR-RES ovarian = system: NCI/ADR-RES ovarian
OVCAR-3 ovarian = system: OVCAR-3 ovarian
OVCAR-4 ovarian = system: OVCAR-4 ovarian
OVCAR-5 ovarian = system: OVCAR-5 ovarian
OVCAR-8 ovarian = system: OVCAR-8 ovarian
PC-3 prostate = system: PC-3 prostate
RPMI-8226 leukemia = system: RPMI-8226 leukemia
RXF 393 renal = system: RXF 393 renal
SF-268 CNS = system: SF-268 CNS
SF-295 CNS = system: SF-295 CNS
SF-539 CNS = system: SF-539 CNS
SK-MEL-2 melanoma = system: SK-MEL-2 melanoma
SK-MEL-28 melanoma = system: SK-MEL-28 melanoma
SK-MEL-5 melanoma = system: SK-MEL-5 melanoma
SK-OV-3 ovarian = system: SK-OV-3 ovarian
SN12C renal = system: SN12C renal
SNB-19 CNS = system: SNB-19 CNS
SNB-75 CNS = system: SNB-75 CNS
SR leukemia = system: SR leukemia
SW-620 colon = system: SW-620 colon
T-47D breast = system: T-47D breast
TK-10 renal = system: TK-10 renal
U251 CNS = system: U251 CNS
UACC-257 melanoma = system: UACC-257 melanoma
UACC-62 melanoma = system: UACC-62 melanoma
UO-31 renal = system: UO-31 renal

**Q.** With `CCNC(=O)N1CCc2cc(OC)c(OCCc3ccc(OC)cc3)cc2C1c1ccc(OC)cc1C` (stereo unspecified) as the compound, how does the GI50 (786-0 renal) read?
**A.** 715 nM

**Q.** And the TGI (786-0 renal)?
**A.** > 100000 nM

**Q.** What about the TGI (A498 renal) of the same compound?
**A.** > 22200 nM

**Q.** What about the GI50 (A549 NSCLC) of the same compound?
**A.** 1390 nM

**Q.** And the TGI (A549 NSCLC)?
**A.** > 100000 nM

**Q.** And the GI50 (ACHN renal)?
**A.** 755 nM

**Q.** What about the TGI (ACHN renal) of the same compound?
**A.** > 100000 nM

**Q.** And the GI50 (BT-549 breast)?
**A.** 1360 nM

**Q.** And the GI50 (CAKI-1 renal)?
**A.** 1150 nM

**Q.** What about the TGI (CAKI-1 renal) of the same compound?
**A.** > 100000 nM

**Q.** What about the GI50 (CCRF-CEM leukemia) of the same compound?
**A.** 432 nM

**Q.** What about the TGI (CCRF-CEM leukemia) of the same compound?
**A.** > 100000 nM

**Q.** What about the GI50 (COLO 205 colon) of the same compound?
**A.** 1070 nM

**Q.** What about the TGI (COLO 205 colon) of the same compound?
**A.** > 100000 nM

**Q.** And the GI50 (DU-145 prostate)?
**A.** 1330 nM

**Q.** What about the TGI (DU-145 prostate) of the same compound?
**A.** > 100000 nM

**Q.** What about the GI50 (EKVX NSCLC) of the same compound?
**A.** 5640 nM

**Q.** What about the TGI (EKVX NSCLC) of the same compound?
**A.** > 100000 nM

**Q.** And the GI50 (HCC-2998 colon)?
**A.** 1950 nM

**Q.** What about the TGI (HCC-2998 colon) of the same compound?
**A.** > 100000 nM

**Q.** What about the GI50 (HCT-116 colon) of the same compound?
**A.** 232 nM

**Q.** What about the TGI (HCT-116 colon) of the same compound?
**A.** > 100000 nM

**Q.** What about the GI50 (HCT-15 colon) of the same compound?
**A.** 168 nM

**Q.** What about the TGI (HCT-15 colon) of the same compound?
**A.** > 100000 nM

**Q.** And the GI50 (HL-60(TB) leukemia)?
**A.** 583 nM

**Q.** What about the TGI (HL-60(TB) leukemia) of the same compound?
**A.** 5230 nM

**Q.** What about the GI50 (HOP-62 NSCLC) of the same compound?
**A.** 1590 nM

**Q.** What about the TGI (HOP-62 NSCLC) of the same compound?
**A.** > 100000 nM

**Q.** And the GI50 (HOP-92 NSCLC)?
**A.** 3910 nM

**Q.** What about the TGI (HOP-92 NSCLC) of the same compound?
**A.** > 100000 nM

**Q.** And the GI50 (HS 578T breast)?
**A.** 1660 nM

**Q.** What about the TGI (HS 578T breast) of the same compound?
**A.** > 31100 nM

**Q.** And the GI50 (HT29 colon)?
**A.** 694 nM

**Q.** What about the TGI (HT29 colon) of the same compound?
**A.** 9660 nM

**Q.** What about the GI50 (IGROV1 ovarian) of the same compound?
**A.** 755 nM

**Q.** And the TGI (IGROV1 ovarian)?
**A.** > 100000 nM

**Q.** And the GI50 (K-562 leukemia)?
**A.** 242 nM

**Q.** What about the TGI (K-562 leukemia) of the same compound?
**A.** > 100000 nM

**Q.** And the GI50 (KM12 colon)?
**A.** 1120 nM

**Q.** And the TGI (KM12 colon)?
**A.** > 100000 nM

**Q.** And the GI50 (LOX IMVI melanoma)?
**A.** 300 nM

**Q.** What about the GI50 (M14 melanoma) of the same compound?
**A.** 1240 nM

**Q.** What about the TGI (M14 melanoma) of the same compound?
**A.** > 100000 nM

**Q.** And the GI50 (MALME-3M melanoma)?
**A.** 12200 nM

**Q.** And the TGI (MALME-3M melanoma)?
**A.** > 100000 nM

**Q.** And the GI50 (MCF7 breast)?
**A.** 528 nM

**Q.** And the TGI (MCF7 breast)?
**A.** > 100000 nM

**Q.** What about the GI50 (MDA-MB-231 breast) of the same compound?
**A.** 1040 nM

**Q.** And the TGI (MDA-MB-231 breast)?
**A.** > 100000 nM

**Q.** And the GI50 (MDA-MB-435)?
**A.** 770 nM

**Q.** What about the TGI (MDA-MB-435) of the same compound?
**A.** 7230 nM

**Q.** What about the GI50 (MOLT-4 leukemia) of the same compound?
**A.** 314 nM

**Q.** What about the TGI (MOLT-4 leukemia) of the same compound?
**A.** > 100000 nM

**Q.** What about the GI50 (NCI-H226 lung) of the same compound?
**A.** 2720 nM

**Q.** And the TGI (NCI-H226 lung)?
**A.** > 53800 nM

**Q.** And the GI50 (NCI-H460 lung)?
**A.** 288 nM

**Q.** And the TGI (NCI-H460 lung)?
**A.** > 32900 nM

**Q.** And the GI50 (NCI-H522 lung)?
**A.** 698 nM

**Q.** What about the TGI (NCI-H522 lung) of the same compound?
**A.** 3340 nM

**Q.** And the GI50 (NCI/ADR-RES ovarian)?
**A.** 871 nM

**Q.** And the TGI (NCI/ADR-RES ovarian)?
**A.** > 30000 nM

**Q.** And the GI50 (OVCAR-3 ovarian)?
**A.** 1960 nM

**Q.** What about the TGI (OVCAR-3 ovarian) of the same compound?
**A.** > 100000 nM

**Q.** What about the GI50 (OVCAR-4 ovarian) of the same compound?
**A.** 3730 nM

**Q.** And the TGI (OVCAR-4 ovarian)?
**A.** > 100000 nM

**Q.** What about the GI50 (OVCAR-5 ovarian) of the same compound?
**A.** 2350 nM

**Q.** And the TGI (OVCAR-5 ovarian)?
**A.** > 100000 nM

**Q.** What about the GI50 (OVCAR-8 ovarian) of the same compound?
**A.** 821 nM

**Q.** What about the TGI (OVCAR-8 ovarian) of the same compound?
**A.** > 100000 nM

**Q.** What about the GI50 (PC-3 prostate) of the same compound?
**A.** 489 nM

**Q.** What about the TGI (PC-3 prostate) of the same compound?
**A.** > 100000 nM

**Q.** And the GI50 (RPMI-8226 leukemia)?
**A.** 486 nM

**Q.** What about the TGI (RPMI-8226 leukemia) of the same compound?
**A.** 4890 nM

**Q.** And the GI50 (RXF 393 renal)?
**A.** 1510 nM

**Q.** And the TGI (RXF 393 renal)?
**A.** 4190 nM

**Q.** What about the GI50 (SF-268 CNS) of the same compound?
**A.** 1320 nM

**Q.** What about the TGI (SF-268 CNS) of the same compound?
**A.** > 100000 nM

**Q.** What about the GI50 (SF-295 CNS) of the same compound?
**A.** 875 nM

**Q.** And the TGI (SF-295 CNS)?
**A.** > 37500 nM

**Q.** And the GI50 (SF-539 CNS)?
**A.** 572 nM

**Q.** And the TGI (SF-539 CNS)?
**A.** 5720 nM

**Q.** What about the GI50 (SK-MEL-2 melanoma) of the same compound?
**A.** 3800 nM

**Q.** What about the TGI (SK-MEL-2 melanoma) of the same compound?
**A.** > 29700 nM

**Q.** What about the GI50 (SK-MEL-28 melanoma) of the same compound?
**A.** 1410 nM

**Q.** What about the TGI (SK-MEL-28 melanoma) of the same compound?
**A.** > 100000 nM

**Q.** What about the GI50 (SK-MEL-5 melanoma) of the same compound?
**A.** 741 nM

**Q.** And the TGI (SK-MEL-5 melanoma)?
**A.** 3160 nM

**Q.** What about the GI50 (SK-OV-3 ovarian) of the same compound?
**A.** 5440 nM

**Q.** What about the TGI (SK-OV-3 ovarian) of the same compound?
**A.** > 100000 nM

**Q.** What about the GI50 (SN12C renal) of the same compound?
**A.** 1530 nM

**Q.** And the TGI (SN12C renal)?
**A.** > 100000 nM

**Q.** And the GI50 (SNB-19 CNS)?
**A.** 1160 nM

**Q.** What about the TGI (SNB-19 CNS) of the same compound?
**A.** > 100000 nM

**Q.** What about the GI50 (SNB-75 CNS) of the same compound?
**A.** 893 nM

**Q.** And the TGI (SNB-75 CNS)?
**A.** > 27200 nM

**Q.** What about the GI50 (SR leukemia) of the same compound?
**A.** 151 nM

**Q.** What about the TGI (SR leukemia) of the same compound?
**A.** 2690 nM

**Q.** And the GI50 (SW-620 colon)?
**A.** 741 nM

**Q.** And the TGI (SW-620 colon)?
**A.** > 100000 nM

**Q.** What about the GI50 (T-47D breast) of the same compound?
**A.** 2960 nM

**Q.** What about the TGI (T-47D breast) of the same compound?
**A.** > 100000 nM

**Q.** And the GI50 (TK-10 renal)?
**A.** 5950 nM

**Q.** What about the TGI (TK-10 renal) of the same compound?
**A.** > 100000 nM

**Q.** What about the GI50 (U251 CNS) of the same compound?
**A.** 557 nM

**Q.** What about the TGI (U251 CNS) of the same compound?
**A.** > 100000 nM

**Q.** And the GI50 (UACC-257 melanoma)?
**A.** 6660 nM

**Q.** What about the TGI (UACC-257 melanoma) of the same compound?
**A.** > 100000 nM

**Q.** What about the GI50 (UACC-62 melanoma) of the same compound?
**A.** 644 nM

**Q.** What about the TGI (UACC-62 melanoma) of the same compound?
**A.** > 100000 nM

**Q.** What about the GI50 (UO-31 renal) of the same compound?
**A.** 1450 nM

**Q.** What about the TGI (UO-31 renal) of the same compound?
**A.** > 100000 nM
